In general, IC50 refers to the concentration at which inhibition is half-maximal. In general, Ki refers to the dissociation constant of the complex between target and ligand, obtained from inhibition or displacement. By inhibition is commonly meant the share of the control response that was lost under treatment.

This note sets out measurements from ChEMBL document CHEMBL4428064, “Discovery and antiparasitic activity of AZ960 as a Trypanosoma brucei ERK8 inhibitor” (Bioorg Med Chem, 2016).

Series [1] has as its system Trypanosoma brucei. In words: Antiparasitic activity against bloodstream form of Trypanosoma brucei 221 infected in mouse VSMC assessed as reduction in log10 RLU at 1 uM after 48 hrs by luciferase reporter gene assay. The series is classed as functional.
For series [2], the system named is Trypanosoma brucei. In words: Antiparasitic activity against bloodstream form of Trypanosoma brucei 221 infected in mouse VSMC assessed as parasitic proliferation at 1 uM after 48 hrs by luciferase reporter gene assay. The series is classed as functional. For orientation: A reporter such as luciferase makes a cellular process visible.
The subject of series [3] is Trypanosoma brucei. In words: Antiparasitic activity against bloodstream form of Trypanosoma brucei 221 infected in mouse VSMC assessed as reduction in parasitic proliferation after 48 hrs by cell titer-glo based assay. The format is functional, organism-based. Conditions: Trypanosoma brucei, 221, VSMC. (ATP-based viability assays read luminescence as a measure of living cells.)

Series [4] in a line: Selectivity ratio of IC50 for rat ins-1 cells to IC50 for bloodstream form of Trypanosoma brucei 221. The format is toxicity. To be noted: read-out: Ratio IC50.
Series [5] can be described thus: Selectivity ratio of IC50 for mouse vSMC to IC50 for bloodstream form of Trypanosoma brucei 221. The format is toxicity. Conditions: read-out: Ratio IC50.
Series [6] can be described thus: Inhibition of GST-tagged Trypanosoma brucei ERK8 expressed in Escherichia coli using recombinant myelin basic protein as substrate after 30 mins in presence of 32P-gamma-ATP by Michaelis-Menten analysis.
Series [7] has as its system Trypanosoma brucei. In words: Inhibition of GST-tagged Trypanosoma brucei ERK8 autophosphorylation expressed in Escherichia coli using myelin basic protein as substrate after 30 mins in presence of 32P-gamma-ATP by SDS-PAGE based autoradiography.
Series [8] addresses Tyrosine-protein kinase JAK2 (Homo sapiens, UniProt O60674, V617F). Nature of the series: Inhibition of JAK2 V617F mutant (unknown origin) using L-Ahx-IPTSPITTTYFFFKKK-COOH as substrate in presence of ATP.
A short description of series [9]: Cytotoxicity against mouse VSMC assessed as cell growth inhibition.
Series [10] deals with INS1. Nature of the series: Cytotoxicity against rat INS-1 cells assessed as cell growth inhibition. The format is cell-based.

Tyrosine-protein kinase JAK2, sequence (O60674 whole entry V617F): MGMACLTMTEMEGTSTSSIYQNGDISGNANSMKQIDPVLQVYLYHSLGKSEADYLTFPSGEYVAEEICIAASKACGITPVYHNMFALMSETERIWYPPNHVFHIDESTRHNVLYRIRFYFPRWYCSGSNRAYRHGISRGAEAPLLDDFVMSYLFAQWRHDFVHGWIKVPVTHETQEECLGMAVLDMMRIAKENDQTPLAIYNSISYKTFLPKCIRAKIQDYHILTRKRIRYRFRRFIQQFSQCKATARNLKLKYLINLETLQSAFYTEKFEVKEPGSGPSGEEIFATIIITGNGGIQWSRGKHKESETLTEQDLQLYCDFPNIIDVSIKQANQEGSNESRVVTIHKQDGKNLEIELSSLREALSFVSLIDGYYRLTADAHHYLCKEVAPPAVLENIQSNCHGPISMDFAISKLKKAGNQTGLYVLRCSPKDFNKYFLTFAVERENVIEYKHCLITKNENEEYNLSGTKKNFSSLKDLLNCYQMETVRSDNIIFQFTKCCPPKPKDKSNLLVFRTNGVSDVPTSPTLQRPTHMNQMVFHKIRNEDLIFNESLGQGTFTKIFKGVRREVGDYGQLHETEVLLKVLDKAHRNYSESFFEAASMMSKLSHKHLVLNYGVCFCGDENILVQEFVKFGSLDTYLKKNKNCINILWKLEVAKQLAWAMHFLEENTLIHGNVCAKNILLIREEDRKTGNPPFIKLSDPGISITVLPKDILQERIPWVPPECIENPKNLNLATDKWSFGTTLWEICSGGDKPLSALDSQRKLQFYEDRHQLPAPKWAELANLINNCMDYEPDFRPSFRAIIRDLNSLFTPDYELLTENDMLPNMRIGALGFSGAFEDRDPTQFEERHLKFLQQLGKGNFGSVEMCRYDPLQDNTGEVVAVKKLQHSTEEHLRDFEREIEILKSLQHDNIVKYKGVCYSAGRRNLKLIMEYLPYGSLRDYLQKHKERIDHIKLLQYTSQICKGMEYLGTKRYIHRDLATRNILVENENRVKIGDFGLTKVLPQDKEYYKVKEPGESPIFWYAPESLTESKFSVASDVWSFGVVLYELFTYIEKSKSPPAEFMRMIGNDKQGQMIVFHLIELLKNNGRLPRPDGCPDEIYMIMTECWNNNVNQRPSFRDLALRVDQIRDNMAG

`Nc1ccc(-c2ccc3ncc4ccc(=O)n(-c5cccc(C(F)(F)F)c5)c4c3c2)cn1`: in series [1], the “reduction in log10 RLU” value is on record as 2. Further, the Activity in series [2] is 0.6%. Also, in series [3], the IC50 was found to be 1000 nM.

In the case of `Cc1cc(Nc2nc(N[C@@H](C)c3ccc(F)cc3)c(C#N)cc2F)n[nH]1`, the selectivity ratio in series [4] lay within 83 to 84; in series [5] it was 208 to 210. Moreover, in series [1], the “reduction in log10 RLU” value came to 2. Further, the values for the inhibitory constant (Ki) in [6] and in series [8] were 1250 nM and 0.45 nM, respectively. Further, in series [2], the Activity is reported as 0.26%. The inhibition in series [7] was less than 20%. Further, the IC50 in series [3] stood at 120 nM; in [9] (Mus musculus, VSMC), 25000 nM; in series [10] (Rattus norvegicus, INS1) it was 10000 nM. For the same molecule, the “inhibition (INH)” value is listed as “Dose-dependent effect” in series [9] (mouse) and “Dose-dependent effect” in [10] (rat, ins1).

Turning to `O=C1c2ccccc2-c2n[nH]c3cccc1c23`, in [1], the “reduction in log10 RLU” value turned out to be 2. Moreover, in series [2], the Activity is listed as 0.26%. For the same molecule, the IC50 in series [3] stood at 570 nM.

As for `Cc1ncc(-c2ccnc(Nc3ccc(S(C)(=O)=O)cc3)n2)n1C(C)C` [AZD-5438], the “reduction in log10 RLU” value in series [1] turned out to be 2. Also, the Activity in series [2] came out at 0.45%. For the same molecule, the inhibition in series [7] is less than 20%. Moreover, the IC50 in [3] was determined as 210 nM.

`COc1ccc(-c2ccc3ncc4c(c3c2)n(-c2ccc(N3CCNCC3)c(C(F)(F)F)c2)c(=O)n4C)cn1` [BGT-226 FREE BASE]: the “reduction in log10 RLU” value in series [1] is 2. The Activity in series [2] came out at 0.12%. In addition, the concentration for half-maximal inhibition (IC50) in series [3] stood at 950 nM.

`CC(C)(C)c1cnc(CSc2cnc(NC(=O)C3CCNCC3)s2)o1` [BMS-387032]: in [1], the “reduction in log10 RLU” value turned out to be 2. In addition, the Activity in series [2] is 0.36%. Also, the IC50 in series [3] is 120 nM.

On to `Cn1c(=O)n(-c2ccc(C(C)(C)C#N)cc2)c2c3cc(-c4cnc5ccccc5c4)ccc3ncc21` [DACTOLISIB], for which, in [1], the “reduction in log10 RLU” value turned out to be 2. Further, the Activity in series [2] is listed as 0.49%.

As for `CCc1cnn2c(NCc3ccc[n+]([O-])c3)cc(N3CCCC[C@H]3CCO)nc12` [DINACICLIB], the “reduction in log10 RLU” value in [1] came out at 2. Besides, the Activity in [2] was 1.13%. Further, the IC50 in series [3] is 80 nM.

Take `CCS(=O)(=O)Nc1ccc2c(c1)/C(=C(/Nc1ccc(CN3CCCCC3)cc1)c1ccccc1)C(=O)N2` [HESPERADIN]: in series [1], the “reduction in log10 RLU” value stood at 2. In addition, in [2], the Activity was 0.27%.

Consider `CNC(=O)c1nn(C)c2c1C(C)(C)Cc1cnc(Nc3ccc(N4CCN(C)CC4)cc3)nc1-2` [MILCICLIB], for which the “reduction in log10 RLU” value in series [1] is 2. Further, in [2], the Activity was 0.58%. In addition, the inhibition in [7] is less than 20%. Further, in series [3], the IC50 came out at 610 nM.

For `COc1ncc(-c2ccc3nccc(-c4ccnnc4)c3c2)cc1NS(=O)(=O)c1ccc(F)cc1F` [OMIPALISIB], the “reduction in log10 RLU” value in series [1] was found to be 2. The Activity in [2] was determined as 0.21%. Also, the IC50 in series [3] was determined as 111 nM.

Take `CC(=O)NCC(=O)N1[C@@H]2CC[C@H]1c1ccc(Nc3ncc(C(F)(F)F)c(NC4CCC4)n3)cc12` [PF-03814735]: the “reduction in log10 RLU” value in series [1] is 2. Further, the Activity in series [2] was 1.16%. Also, the inhibition in series [7] is less than 20%. Further, the half-inhibitory concentration (IC50) in [3] stood at 260 nM.
